From patent US9034899B2, “Aryl, heteroaryl, and heterocycle substituted tetrahydroisoquinolines and use thereof” (Albany Molecular Research, Inc., priority 2009, dated 2015)

Tests used:
NET = assay: Occupancy assay, ex vivo binding in brain tissue, NET
Excerpt: (§1) The general procedure for brain tissue collection and transporter occupancy assessment is briefly described as follows. Mice were sacrificed by asphyxiation in CO2, rats by decapitation and dogs by IV injection of euthanasia solution. For mice and rats, after the brains were removed from the skull, the forebrain tissue (removal of the brainstem and cerebellum) was used for SERT, NET, and DAT occupancy assessment. In dogs, the striatum was dissected for DAT occupancy and the remaining forebrain tissue (without the striatum, brainstem, and cerebellum) was used for SERT and NET occupancy assessment. The brain tissues were frozen in chilled isopentane and stored at −80° C. until homogenization.
(§2) The brain tissues were thawed and then homogenized using a polytron homogenizer (Kinematica). Sample aliquots were frozen immediately and stored at −80° C. Protein content was measured for each sample using a Coomassie protein assay kit (Pierce).
(§3) On the day of ex vivo binding for occupancy assessment, frozen sample aliquots were thawed and needle homogenized, and 100 μg of the tissue was incubated for SERT, NET, and DAT binding under assay conditions summarized in Table 2. […] The filters were washed twice with ice-cold incubation buffer, punched into a clear plate prior to the addition of 200 ul scintillation fluid per well. Radioligand was measured using a Wallac Microbeta liquid scintillation counter.
(§4) The specific binding was calculated by subtracting the value of the non-specific binding from that of the total binding in each sample. The percent occupancy was calculated as (1−specific binding in drug treated/specific binding in vehicle treated)×100%. […] Nonlinear regression was performed using GraphPad Prism version 3.00 (GraphPad Software, San Diego, Calif.).

DAT = assay: Occupancy assay, ex vivo binding in brain tissue, DAT
Excerpt: as §1, §2, §3, §4

hDAT = hDAT (Homo sapiens (Human), UniProt Q01959); assay: DAT radioligand binding assay ([125I]RTI-55, HEK-293 membranes); conditions: (+)-enantiomers; read-out: DAT IC50
Chain of hDAT (Q01959 whole entry): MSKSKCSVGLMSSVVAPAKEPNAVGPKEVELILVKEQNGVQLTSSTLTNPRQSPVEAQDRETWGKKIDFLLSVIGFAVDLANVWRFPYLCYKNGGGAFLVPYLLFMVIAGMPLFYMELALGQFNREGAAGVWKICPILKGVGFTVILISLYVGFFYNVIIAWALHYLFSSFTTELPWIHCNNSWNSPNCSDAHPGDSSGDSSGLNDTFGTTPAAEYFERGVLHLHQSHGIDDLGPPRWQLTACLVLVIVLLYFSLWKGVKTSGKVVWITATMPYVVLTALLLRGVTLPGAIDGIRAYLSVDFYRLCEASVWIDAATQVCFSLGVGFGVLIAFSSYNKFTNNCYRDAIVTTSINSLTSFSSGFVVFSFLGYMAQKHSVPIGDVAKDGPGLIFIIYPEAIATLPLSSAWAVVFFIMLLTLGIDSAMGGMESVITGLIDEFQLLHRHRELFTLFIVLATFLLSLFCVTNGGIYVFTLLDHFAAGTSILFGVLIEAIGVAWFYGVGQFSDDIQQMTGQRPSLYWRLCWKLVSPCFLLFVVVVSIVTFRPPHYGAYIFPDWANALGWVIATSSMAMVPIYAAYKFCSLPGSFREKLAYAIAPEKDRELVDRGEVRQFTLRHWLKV
Protocol: (§5) Recombinant HEK-293 cells expressing either the hSERT, hDAT, or hNET proteins were harvested from T-175 flasks as follows. The medium was removed from the flasks and the cells rinsed with HBSS without Ca and without Mg. The cells were then incubated for 5-10 minutes in 10 mM Tris-Cl, pH 7.5, 5 mM EDTA before the cells were lifted with a combination of pipetting and scraping, as needed. The cell suspension was collected into centrifuge bottles and homogenized for 30 seconds with a Polytron homogenizer. The suspension was centrifuged for 30 minutes at 32,000×g, 4° C. The supernatant was decanted and the pellet resuspended and homogenized in 50 mM Tris-Cl, pH 7.5, 1 mM EDTA for 10 seconds. The suspension was then centrifuged again for 30 minutes at 32,000×g, 4° C. The supernatant was decanted and the pellet resuspended in 50 mM Tris-Cl, pH 7.5, 1 mM EDTA and briefly homogenized. A Bradford assay (Bio-rad) was performed and the membrane preparation diluted to 2 mg/ml with 50 mM Tris-Cl, pH 7.5, 1 mM EDTA. Aliquots were prepared, and then frozen and stored at −80° C.
Compounds were dissolved in 100% DMSO at a concentration 100 times the desired highest assay concentration, serially diluted 1:3 in 100% DMSO, and 0.4 μl/well of each solution was dispensed to a Nunc polypropylene, round bottom, 384-well plate. 100% inhibition is defined with 0.4 μl/well of 1 mM GBR-12935 dissolved in DMSO. 20 ul/well of a 2× membrane preparation (12.5 μg/ml in 30 mM sodium phosphate buffer, pH 7.9 at 4° C.) and 20 μl/well of a 2× radioligand solution ([…] [^125I]RTI-55 in 30 mM sodium phosphate buffer, pH 7.9 at 4° C.) were added to the well and the reaction incubated for 1 hour at room temperature. The contents of the assay plate were then transferred to a Millipore MultiscreenHTS GF/B filter plate which was pretreated with 0.5% PEI for at least one hour. The plate was vacuum-filtered and washed with 7 washes of 100 μl/well 50 mM Tris-Cl, pH 7.5, 120 mM NaCl, 5 mM KCl chilled to 4° C. The filtration and washing were completed in less than 90 seconds. The plates were air-dried overnight, 12 μl/well of MicroScint scintillation fluid added, and the plates counted in a Trilux.
(§6) The raw data was normalized to percent inhibition using control wells defining 0% (DMSO only) and 100% (selective inhibitor) inhibition which were run on each plate. Each plate was run in triplicate, and the concentration response curve thus generated was fit using the four-parameter dose response equation, Y=Bottom+(Top-Bottom)/(1+10^((LogIC50−X)*HillSlope)) in order to determine the IC50 value for each compound. The radioligand concentration chosen for each assay corresponds to the Kd concentration determined through saturation binding analysis for each assay.

hNET = hNET (Homo sapiens (Human), UniProt P23975); assay: NET radioligand binding assay ([3H]nisoxetine, HEK-293 membranes); conditions: (+)-enantiomers
Chain of hNET (P23975 whole entry): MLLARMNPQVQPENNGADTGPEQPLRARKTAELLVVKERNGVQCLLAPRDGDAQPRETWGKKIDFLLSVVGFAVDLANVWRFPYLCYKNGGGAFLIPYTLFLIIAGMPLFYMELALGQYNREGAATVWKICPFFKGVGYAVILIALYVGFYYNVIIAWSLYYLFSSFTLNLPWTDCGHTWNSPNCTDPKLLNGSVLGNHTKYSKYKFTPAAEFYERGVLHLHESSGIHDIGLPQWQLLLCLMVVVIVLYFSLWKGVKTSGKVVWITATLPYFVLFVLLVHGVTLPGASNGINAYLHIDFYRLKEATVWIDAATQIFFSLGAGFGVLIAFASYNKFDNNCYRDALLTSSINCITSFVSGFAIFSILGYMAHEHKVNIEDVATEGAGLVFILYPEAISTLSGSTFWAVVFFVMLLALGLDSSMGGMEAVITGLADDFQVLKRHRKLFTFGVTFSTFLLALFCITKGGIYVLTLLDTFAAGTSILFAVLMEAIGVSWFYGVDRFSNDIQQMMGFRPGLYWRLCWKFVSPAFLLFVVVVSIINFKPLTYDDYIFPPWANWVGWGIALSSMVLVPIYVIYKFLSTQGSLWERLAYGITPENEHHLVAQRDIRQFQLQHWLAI
Protocol: as §5
Compounds were dissolved in 100% DMSO at a concentration 100 times the desired highest assay concentration, serially diluted 1:3 in 100% DMSO, and 1.0 μl/well of each solution was dispensed to a Nunc polypropylene, round bottom, 384-well plate. 100% inhibition is defined with 1.0 μl/well of 10 mM desipramine dissolved in DMSO. 50 μl/well of a 2× membrane preparation (0.4 mg/ml in 50 mM Tris-Cl, pH 7.5, 120 mM NaCl, 5 mM KCl) and 50 μl/well of a 2× radioligand solution (4 nM [^3H]nisoxetine in 50 mM Tris-Cl, pH 7.5, 120 mM NaCl, 5 mM KCl) were added to the well and the reaction incubated for 1 hour at room temperature. The contents of the assay plate were then transferred to a Millipore MultiscreenHTS GF/B filter plate which was pretreated with 0.5% PEI for at least one hour. The plate was vacuum filtered and washed with 7 washes of 100 μl/well 50 mM Tris-Cl, pH 7.5, 120 mM NaCl, 5 mM KCl chilled to 4° C. The filtration and washing were completed in less than 90 seconds. The plates were air-dried overnight, 12 μl/well of MicroScint scintillation fluid added, and the plates counted in a Trilux.
as §6

SERT = assay: Occupancy assay, ex vivo binding in brain tissue, SERT
Excerpt: as §1, §2
On the day of ex vivo binding for occupancy assessment, frozen sample aliquots were thawed and needle homogenized, and 100 μg of the tissue was incubated for SERT, NET, and DAT binding under assay conditions summarized in Table 2. After incubation, the reactions were terminated by the addition of ice-cold assay buffer and rapid filtration through a Brandel Cell Harvester using FPXLR-196 filters. The filters were washed twice with ice-cold incubation buffer, punched into a clear plate prior to the addition of 200 ul scintillation fluid per well. Radioligand was measured using a Wallac Microbeta liquid scintillation counter.
The specific binding was calculated by subtracting the value of the non-specific binding from that of the total binding in each sample. The percent occupancy was calculated as (1−specific binding in drug treated/specific binding in vehicle treated)×100%. For estimation of in vivo occupancy EC50 (total plasma concentration of compound producing 50% occupancy), plots of occupancy values versus plasma concentrations were fitted to a one-site binding model using nonlinear regression according to the following equation: % Occupancy=Emax*C/(EC50+C) where Emax is the maximal specific binding, C is the drug concentration, and EC50 is the total plasma concentration required for 50% binding site occupancy. Nonlinear regression was performed using GraphPad Prism version 3.00 (GraphPad Software, San Diego, Calif.).

SMILES | NET Occupancy % (NET; dose 1 mg/kg, time point 1 h) | DAT Occupancy % (DAT; dose 1 mg/kg, time point 1 h) | IC50 (hDAT) | IC50 (hNET) | SERT Occupancy % (SERT; dose 1 mg/kg, time point 1 h) | NET Occupancy % (NET; dose 1 mg/kg, time point 3 h) | DAT Occupancy % (DAT; dose 1 mg/kg, time point 3 h) | SERT Occupancy % (SERT; dose 1 mg/kg, time point 3 h) | NET Occupancy % (NET; dose 3 mg/kg, time point 3 h) | DAT Occupancy % (DAT; dose 3 mg/kg, time point 3 h) | SERT Occupancy % (SERT; dose 3 mg/kg, time point 3 h)
CC1(C)NCC(c2ccc(Cl)c(Cl)c2)c2ccc(-c3cccnn3)cc21 (single isomer, unassigned) [Example 9, 4-(3,4-dichlorophenyl)-1,1-dimethyl-7-(pyridazin-3-yl)-1,2,3,4-tetrahydroisoquinoline] | 20% | 71% | 1.8 nM | 133 nM | 60% |  |  |  |  |  | 
FC(F)Oc1ccc(-c2ccc3c(c2)CNCC3c2ccc(Cl)c(Cl)c2)nn1 (centres unmarked) [Example 12, 4-(3,4-dichlorophenyl)-7-(6-(difluoromethoxy)pyridazin-3-yl)-1,2,3,4-tetrahydroisoquinoline] |  |  | 50.2 nM | 18.8 nM |  | 46% | 15% | 82% |  |  | 
CC1(C)NCC(c2ccc(Cl)c(Cl)c2)c2ccc(-c3ccc(N)nn3)cc21 (centres unmarked) [Example 13, 4-(3,4-dichlorophenyl)-7-(6-aminopyridazin-3-yl)-1,1-dimethyl-1,2,3,4-tetrahydroisoquinoline] |  |  | 2.4 nM | 97 nM |  |  |  |  | 5% | 53% | 55%
Cc1noc(C)c1-c1ccc2c(c1)CNCC2c1ccc(Cl)c(Cl)c1 (centres unmarked) [Example 25, 4-(4-(3,4-dichlorophenyl)-1,2,3,4-tetrahydroisoquinolin-7-yl)-3,5-dimethylisoxazole] |  |  | 47.3 nM | 195 nM |  | 0% | 0% | 50% |  |  | 
Clc1ccc(C2CNCc3cc(-c4cccnn4)ccc32)cc1Cl (centres unmarked) [Example 33, 4-(3,4-dichlorophenyl)-7-(pyridazin-3-yl)-1,2,3,4-tetrahydroisoquinoline] | 3% | 8% | 15.4 nM | 26.4 nM | 49% |  |  |  |  |  | 
Nc1ccc(-c2ccc3c(c2)CNCC3c2ccc(Cl)c(Cl)c2)nn1 (centres unmarked) [Example 34, 6-(4-(3,4-dichlorophenyl)-1,2,3,4-tetrahydroisoquinolin-7-yl)pyridazin-3-amine] | 11% | 0% | 7.1 nM | 22.9 nM | 10% |  |  |  |  |  | 
CC1(C)NCC(c2ccc(Cl)c(Cl)c2)c2ccc(-c3ccc4ncnn4c3)cc21 (centres unmarked) [Example 40, 4-(3,4-dichlorophenyl)-7-([1,2,4]triazolo[1,5-a]pyridin-6-yl)-1,1-dimethyl-1,2,3,4-tetrahydroisoquinoline] |  |  | 2.1 nM | 51 nM |  |  |  |  | 1% | 78% | 74%
